According to patent US9890166B2, “Imidazopyrrolidine derivatives and their use in the treatment of disease” (NOVARTIS AG, priority 2013, dated 2018):
pIC50: −log10 of the molar value.

What was measured:
BRD4 (His-Brd4(44-477)) = BRD4 (His-Brd4(44-477)) (Homo sapiens (Human), UniProt O60885); assay: TR-FRET in-vitro binding assay for BRD4; conditions: single determination or n ≧ 2 independent determinations, read-out: Biochemical IC50 BRD4
Summary of the method: (§1)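 His-tagged BRD2, BRD3 and BRD4 fragments tested by TR-FRET at 8 compound concentrations, with DMSO stocks at 10 mM. Read on EnVision after 35 min incubation at 30° C.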

BRD3 (His-Brd3(20-477)) = BRD3 (His-Brd3(20-477)) (Homo sapiens (Human), UniProt Q15059); assay: TR-FRET in-vitro binding assay for BRD3; conditions: single determination or n ≧ 2 independent determinations, read-out: Biochemical IC50 BRD3
BRD3 (His-Brd3(20-477)), sequence (Q15059 20-477): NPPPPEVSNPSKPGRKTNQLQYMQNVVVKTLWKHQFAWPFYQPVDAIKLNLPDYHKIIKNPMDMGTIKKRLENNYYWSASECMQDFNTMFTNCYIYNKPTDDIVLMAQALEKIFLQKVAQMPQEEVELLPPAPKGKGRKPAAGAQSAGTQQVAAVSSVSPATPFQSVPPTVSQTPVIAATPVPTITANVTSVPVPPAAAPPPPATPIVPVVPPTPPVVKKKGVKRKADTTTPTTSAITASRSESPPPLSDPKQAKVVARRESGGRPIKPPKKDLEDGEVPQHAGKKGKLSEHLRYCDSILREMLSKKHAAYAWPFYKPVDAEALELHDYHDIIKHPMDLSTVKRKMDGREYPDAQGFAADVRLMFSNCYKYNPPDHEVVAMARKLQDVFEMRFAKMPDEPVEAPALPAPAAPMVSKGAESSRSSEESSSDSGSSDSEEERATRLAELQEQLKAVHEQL
Summary of the method: as §1

THP-1 cells = assay: Cell growth inhibition assay (CellTiter-Glo), THP-1; conditions: for GI50: Homo sapiens, THP-1, read-out: THP-1 GI50; for THP-1 TGI: THP-1 cells, total growth inhibition, CellTiter-Glo;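 for all read-outs here: viability read as cellular ATP luminescence after 4 days, 3-fold dilution series from 10 µM, DMSO vehicle-treated cells taken as 100%, cell-free medium wells as −100%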
K-562 cells = assay: Cell growth inhibition assay (CellTiter-Glo), K-562; conditions: for GI50: Homo sapiens, K562, read-out: K-562 GI50; for K-562 TGI: K-562 cells, total growth inhibition, CellTiter-Glo;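 for all read-outs here: cellular ATP measured by luminescence after 4 days of exposure, 3-fold dilution series from 10 µM, DMSO vehicle-treated cells define 100%, cell-free medium wells −100%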
BRD2 (His-Brd2(60-472)) = BRD2 (His-Brd2(60-472)) (Homo sapiens (Human), UniProt P25440); assay: TR-FRET in-vitro binding assay for BRD2; conditions: single determination or n ≧ 2 independent determinations, read-out: Biochemical IC50 BRD2
BRD2 (His-Brd2(60-472)), sequence (P25440 60-472): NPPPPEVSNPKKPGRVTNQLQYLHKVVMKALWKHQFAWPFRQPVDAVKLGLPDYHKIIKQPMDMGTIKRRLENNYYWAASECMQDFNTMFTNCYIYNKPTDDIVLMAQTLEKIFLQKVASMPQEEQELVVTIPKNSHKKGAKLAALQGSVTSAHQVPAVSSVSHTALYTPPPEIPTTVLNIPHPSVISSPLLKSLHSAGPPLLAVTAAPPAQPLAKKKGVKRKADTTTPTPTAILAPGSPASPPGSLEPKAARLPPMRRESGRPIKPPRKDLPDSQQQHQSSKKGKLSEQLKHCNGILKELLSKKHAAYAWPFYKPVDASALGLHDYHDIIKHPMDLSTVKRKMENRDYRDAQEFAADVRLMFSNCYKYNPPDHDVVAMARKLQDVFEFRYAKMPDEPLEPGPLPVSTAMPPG
Summary of the method: as §1

MV-4-11 cells = assay: Cell growth inhibition assay (CellTiter-Glo), MV-4-11; conditions: for GI50: Homo sapiens, MV4-11, read-out: MV-4-11 GI50; for MV-4-11 TGI: MV-4-11 cells, total growth inhibition, CellTiter-Glo;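 for all read-outs here: cellular ATP luminescence after 4 days, 3-fold dilution series from 10 µM top dose, vehicle (0.1% DMSO) set to 100%, cell-free medium set to −100%, day 0 corrected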
[1] = molecular target: CREBBP bromodomain (His-CREBBP(1081-1197)) (Homo sapiens (Human), UniProt Q92793); assay: AlphaScreen in-vitro binding assay for CREBBP; conditions: single determination or n ≧ 2 independent determinations, read-out: Biochemical IC50 CREBBP
CREBBP bromodomain (His-CREBBP(1081-1197)), sequence (Q92793 1081-1197): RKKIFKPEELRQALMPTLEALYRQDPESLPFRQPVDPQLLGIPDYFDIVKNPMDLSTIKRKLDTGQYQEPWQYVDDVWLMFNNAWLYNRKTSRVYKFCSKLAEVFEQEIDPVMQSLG
Summary of the method: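 Detection used nickel-chelate acceptor plus streptavidin donor AlphaScreen beads, 1 h room temperature. Percent inhibition fitted by non-linear regression to IC50.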

Structure (SMILES): COc1ncccc1-c1nc2c([nH]1)C(c1ccc(Cl)cc1)N(c1cc(C)c3nnc(C(F)F)n3c1)C2=O (centres unmarked) [Example 140, 6-(4-chlorophenyl)-5-(3-(difluoromethyl)-8-methyl-[1,2,4]triazolo[4,3-a]pyridin-6-yl)-2-(2-methoxypyridin-3-yl)-5,6-dihydropyrrolo[3,4-d]imidazol-4(1H)-one]
- pIC50 (BRD4 (His-Brd4(44-477))): 7.54
- pIC50 (BRD3 (His-Brd3(20-477))): 7.55
- GI50 (THP-1 cells): 63.6 nM
- THP-1 TGI (THP-1 cells): 0.1245 µM
- GI50 (K-562 cells): 180 nM
- K-562 TGI (K-562 cells): >10 µM
- pIC50 (BRD2 (His-Brd2(60-472))): 7.38
- GI50 (MV-4-11 cells): 38.4 nM
- MV-4-11 TGI (MV-4-11 cells): 0.0668 µM
- pIC50 [1]: < 4.43

Structure (SMILES): COc1ccc(-c2nc3c([nH]2)C(c2ccc(Cl)cc2)N(c2cc(C)c4nnc(C(F)F)n4c2)C3=O)cn1 (centres unmarked) [Example 141, 6-(4-chlorophenyl)-5-(3-(difluoromethyl)-8-methyl-[1,2,4]triazolo[4,3-a]pyridin-6-yl)-2-(6-methoxypyridin-3-yl)-5,6-dihydropyrrolo[3,4-d]imidazol-4(1H)-one]
- pIC50 (BRD4 (His-Brd4(44-477))): 7.63
- pIC50 (BRD3 (His-Brd3(20-477))): 7.68
- GI50 (THP-1 cells): 77 nM
- THP-1 TGI (THP-1 cells): 0.179 µM
- GI50 (K-562 cells): 202 nM
- K-562 TGI (K-562 cells): >10 µM
- pIC50 (BRD2 (His-Brd2(60-472))): 7.33
- GI50 (MV-4-11 cells): 73.2 nM
- MV-4-11 TGI (MV-4-11 cells): 0.1115 µM
- pIC50 [1]: < 4.43

Structure (SMILES): COc1ncc(-c2nc3c(n2C(C)C)C(c2ccc(Cl)cc2)N(c2cc(C)c4nnc(C(F)F)n4c2)C3=O)c(OC)n1 (centres unmarked) [Example 143, 6-(4-chlorophenyl)-5-(3-(difluoromethyl)-8-methyl-[1,2,4]triazolo[4,3-a]pyridin-6-yl)-2-(2,4-dimethoxypyrimidin-5-yl)-1-isopropyl-5,6-dihydropyrrolo[3,4-d]imidazol-4(1H)-one]
- pIC50 (BRD4 (His-Brd4(44-477))): 7.72
- pIC50 (BRD3 (His-Brd3(20-477))): 7.74
- GI50 (THP-1 cells): 11.3 nM
- THP-1 TGI (THP-1 cells): 0.03065 µM
- GI50 (K-562 cells): 44 nM
- K-562 TGI (K-562 cells): >10 µM
- pIC50 (BRD2 (His-Brd2(60-472))): 7.47
- GI50 (MV-4-11 cells): 9.19 nM
- MV-4-11 TGI (MV-4-11 cells): 0.0161 µM
- pIC50 [1]: < 4.43

Structure (SMILES): COc1cc(C(F)(F)F)ccc1-c1nc2c(n1C(C)C)C(c1ccc(Cl)cc1)N(c1cc(C)c3nnc(C(F)F)n3c1)C2=O (centres unmarked) [Example 144, 6-(4-chlorophenyl)-5-(3-(difluoromethyl)-8-methyl-[1,2,4]triazolo[4,3-a]pyridin-6-yl)-1-isopropyl-2-(2-methoxy-4-(trifluoromethyl)phenyl)-5,6-dihydropyrrolo[3,4-d]imidazol-4(1H)-one]
- pIC50 (BRD4 (His-Brd4(44-477))): 7.64
- pIC50 (BRD3 (His-Brd3(20-477))): 7.66
- GI50 (THP-1 cells): 46.2 nM
- THP-1 TGI (THP-1 cells): 0.09295 µM
- GI50 (K-562 cells): 116 nM
- K-562 TGI (K-562 cells): >10 µM
- pIC50 (BRD2 (His-Brd2(60-472))): 7.59
- GI50 (MV-4-11 cells): 30.8 nM
- MV-4-11 TGI (MV-4-11 cells): 0.0469 µM
- pIC50 [1]: < 4.43

Structure (SMILES): Cc1cc(N2C(=O)c3nc(C4CC4)n(C(C)C)c3C2c2ccc(Cl)cc2)cn2c(C(F)F)nnc12 (centres unmarked) [Example 145, 6-(4-chlorophenyl)-2-cyclopropyl-5-(3-(difluoromethyl)-8-methyl-[1,2,4]triazolo[4,3-a]pyridin-6-yl)-1-isopropyl-5,6-dihydropyrrolo[3,4-d]imidazol-4(1H)-one]
- pIC50 (BRD4 (His-Brd4(44-477))): 7.55
- pIC50 (BRD3 (His-Brd3(20-477))): 7.54
- GI50 (THP-1 cells): 22.2 nM
- THP-1 TGI (THP-1 cells): 0.0476 µM
- GI50 (K-562 cells): 70.2 nM
- K-562 TGI (K-562 cells): >10 µM
- pIC50 (BRD2 (His-Brd2(60-472))): 7.27
- GI50 (MV-4-11 cells): 14 nM
- MV-4-11 TGI (MV-4-11 cells): 0.02695 µM
- pIC50 [1]: < 4.43

Structure (SMILES): Cc1cc(N2C(=O)c3nc(C)n(C(C)C)c3[C@H]2c2ccc(Cl)cc2)cn2c(C(F)F)nnc12 [Example 146, (R)-6-(4-chlorophenyl)-5-(3-(difluoromethyl)-8-methyl-[1,2,4]triazolo[4,3-a]pyridin-6-yl)-1-isopropyl-2-methyl-5,6-dihydropyrrolo[3,4-d]imidazol-4(1H)-one]
- pIC50 (BRD4 (His-Brd4(44-477))): > 7.96
- pIC50 (BRD3 (His-Brd3(20-477))): 7.92
- GI50 (THP-1 cells): 11 nM
- THP-1 TGI (THP-1 cells): 0.02975 µM
- GI50 (K-562 cells): 46.9 nM
- K-562 TGI (K-562 cells): >10 µM
- pIC50 (BRD2 (His-Brd2(60-472))): 7.70
- GI50 (MV-4-11 cells): 9.57 nM
- MV-4-11 TGI (MV-4-11 cells): 0.01505 µM
- pIC50 [1]: < 4.43

Structure (SMILES): Cc1cc(N2C(=O)c3nc(C4=CCOCC4)n(C(C)C)c3C2c2ccc(Cl)cc2)cn2c(C(F)F)nnc12 (centres unmarked) [Example 147, 6-(4-chlorophenyl)-5-(3-(difluoromethyl)-8-methyl-[1,2,4]triazolo[4,3-a]pyridin-6-yl)-2-(3,6-dihydro-2H-pyran-4-yl)-1-isopropyl-5,6-dihydropyrrolo[3,4-d]imidazol-4(1H)-one]
- pIC50 (BRD4 (His-Brd4(44-477))): 7.89
- pIC50 (BRD3 (His-Brd3(20-477))): 7.36
- GI50 (THP-1 cells): 11.8 nM
- THP-1 TGI (THP-1 cells): 0.03355 µM
- GI50 (K-562 cells): 52 nM
- K-562 TGI (K-562 cells): >10 µM
- pIC50 (BRD2 (His-Brd2(60-472))): 7.22
- GI50 (MV-4-11 cells): 8.12 nM
- MV-4-11 TGI (MV-4-11 cells): 0.01625 µM
- pIC50 [1]: 4.46

Structure (SMILES): COc1ncccc1-c1nc2c(n1C(C)C)C(c1ccc(Cl)cc1)N(c1cc(C)c3nnc(C(F)F)n3n1)C2=O (centres unmarked) [Example 148, 6-(4-chlorophenyl)-5-(3-(difluoromethyl)-8-methyl-[1,2,4]triazolo[4,3-b]pyridazin-6-yl)-1-isopropyl-2-(2-methoxypyridin-3-yl)-5,6-dihydropyrrolo[3,4-d]imidazol-4(1H)-one]
- pIC50 (BRD4 (His-Brd4(44-477))): 7.64
- pIC50 (BRD3 (His-Brd3(20-477))): 7.66
- GI50 (THP-1 cells): 9.99 nM
- THP-1 TGI (THP-1 cells): 0.02495 µM
- GI50 (K-562 cells): 69.5 nM
- K-562 TGI (K-562 cells): >10 µM
- pIC50 (BRD2 (His-Brd2(60-472))): 7.44
- GI50 (MV-4-11 cells): 6.47 nM
- MV-4-11 TGI (MV-4-11 cells): 0.0131 µM
- pIC50 [1]: < 4.43

Structure (SMILES): COc1ccc(-c2nc3c(n2C(C)C)C(c2ccc(Cl)cc2)N(c2cc(C)c4nnc(C(F)F)n4n2)C3=O)cn1 (centres unmarked) [Example 149, 6-(4-chlorophenyl)-5-(3-(difluoromethyl)-8-methyl-[1,2,4]triazolo[4,3-b]pyridazin-6-yl)-1-isopropyl-2-(6-methoxypyridin-3-yl)-5,6-dihydropyrrolo[3,4-d]imidazol-4(1H)-one]
- pIC50 (BRD4 (His-Brd4(44-477))): 7.80
- pIC50 (BRD3 (His-Brd3(20-477))): 7.68
- GI50 (THP-1 cells): 33.3 nM
- THP-1 TGI (THP-1 cells): 0.0839 µM
- GI50 (K-562 cells): 148 nM
- K-562 TGI (K-562 cells): >10 µM
- pIC50 (BRD2 (His-Brd2(60-472))): 7.66
- GI50 (MV-4-11 cells): 26.5 nM
- MV-4-11 TGI (MV-4-11 cells): 0.0435 µM
- pIC50 [1]: < 4.43

Structure (SMILES): Cc1cc(N2C(=O)c3nc(C)n(C(C)C)c3C2c2ccc(Cl)cc2)nn2c(C(F)F)nnc12 (centres unmarked) [Example 150, 6-(4-chlorophenyl)-5-(3-(difluoromethyl)-8-methyl-[1,2,4]triazolo[4,3-b]pyridazin-6-yl)-1-isopropyl-2-methyl-5,6-dihydropyrrolo[3,4-d]imidazol-4(1H)-one]
- pIC50 (BRD4 (His-Brd4(44-477))): 7.42
- pIC50 (BRD3 (His-Brd3(20-477))): 7.41
- GI50 (THP-1 cells): 17.3 nM
- THP-1 TGI (THP-1 cells): 0.0464 µM
- GI50 (K-562 cells): 75.3 nM
- K-562 TGI (K-562 cells): >10 µM
- pIC50 (BRD2 (His-Brd2(60-472))): 7.03
- GI50 (MV-4-11 cells): 9.63 nM
- MV-4-11 TGI (MV-4-11 cells): 0.0242 µM
- pIC50 [1]: < 4.43

Structure (SMILES): COc1ncccc1-c1nc2c(n1C(C)C)[C@@H](c1ccc(Cl)cc1)N(c1cc(C)c3nnc(C(F)F)n3c1)C2=O [Example 151, (R)-6-(4-chlorophenyl)-5-(3-(difluoromethyl)-8-methyl-[1,2,4]triazolo[4,3-a]pyridin-6-yl)-1-isopropyl-2-(2-methoxypyridin-3-yl)-5,6-dihydropyrrolo[3,4-d]imidazol-4(1H)-one]
- pIC50 (BRD4 (His-Brd4(44-477))): 7.96
- pIC50 (BRD3 (His-Brd3(20-477))): 7.85
- GI50 (THP-1 cells): 6.85 nM
- THP-1 TGI (THP-1 cells): 0.01745 µM
- GI50 (K-562 cells): 24.1 nM
- K-562 TGI (K-562 cells): >10 µM
- pIC50 (BRD2 (His-Brd2(60-472))): 7.85
- GI50 (MV-4-11 cells): 3.73 nM
- MV-4-11 TGI (MV-4-11 cells): 0.008015 µM
- pIC50 [1]: 4.86
